The results in this text go back to the SangsterLogP compilation.

By logP is commonly meant a log measure of how a compound divides between an organic and an aqueous phase. A higher logP goes with a more lipophilic compound.

Data set [1] in a line: method code SF, from DOI: 10.1021/jm00063a015, PMID: 8388471.

Structures are written as SMILES.

For `CN(Cc1ccccc1)C(=O)C(Cc1ccccc1)NC(=O)C(Cc1cn(C(=O)CCCCCCN)c2ccccc12)NC(=O)CC1NC(=O)C2C3CCC(CC3)N2C1=O` (stereo unspecified), the logP turned out to be 2.48. The molecule `CN(Cc1ccccc1)C(=O)C(Cc1ccccc1)NC(=O)C(Cc1cn(C=O)c2ccccc12)NC(=O)CC1NC(=O)C2C3CCC(CC3)N2C1=O` (stereo unspecified) had a logP in data set [1] of 3.47. `CC(=O)n1cc(CC(NC(=O)CC2NC(=O)C3C4CCC(CC4)N3C2=O)C(=O)NC(Cc2ccccc2)C(=O)N(C)Cc2ccccc2)c2ccccc21` (stereo unspecified) gave a logP of 3.69. On the same count and under the same terms, as for `COC(=O)n1cc(CC(NC(=O)CC2NC(=O)C3C4CCC(CC4)N3C2=O)C(=O)NC(Cc2ccccc2)C(=O)N(C)Cc2ccccc2)c2ccccc21` (stereo unspecified), the figure is 4.05. For `CN(Cc1ccccc1)C(=O)C(Cc1ccccc1)NC(=O)C(Cc1cn(C(=O)OCc2ccccc2)c2ccccc12)NC(=O)CC1NC(=O)C2C3CCC(CC3)N2C1=O` (stereo unspecified), in data set [1], the logP was found to be 5.66. With `CCCCCCCC(=O)n1cc(C[C@@H](NC(=O)CC2NC(=O)C3C4CCC(CC4)N3C2=O)C(=O)N[C@@H](Cc2ccccc2)C(=O)N(C)Cc2ccccc2)c2ccccc21` (stereo partly specified), the logP stood at 7.29. Still for that read-out and setting: as for `CN(Cc1ccccc1)C(=O)C(Cc1ccccc1)NC(=O)C(Cc1cn(C(=O)OCCCCCCN)c2ccccc12)NC(=O)CC1NC(=O)C2C3CCC(CC3)N2C1=O` (stereo unspecified), the figure is 2.95. Same read-out and setting: to `CN(Cc1ccccc1)C(=O)C(Cc1ccccc1)NC(=O)C(Cc1cn(C(=O)CCC(=O)O)c2ccccc12)NC(=O)CC1NC(=O)C2C3CCC(CC3)N2C1=O` (stereo unspecified) belongs 3.15; to `CN(Cc1ccccc1)C(=O)C(Cc1ccccc1)NC(=O)C(Cc1c[nH]c2ccccc12)NC(=O)CC1NC(=O)C2C3CCC(CC3)N2C1=O` (stereo unspecified), 3.18; to `CN(Cc1ccccc1)C(=O)[C@H](Cc1ccccc1)NC(=O)[C@@H](Cc1cn(C(=O)OC(C)(C)C)c2ccccc12)NC(=O)CC1NC(=O)C2C3CCC(CC3)N2C1=O` (stereo partly specified), 5.33. Regarding `CN(Cc1ccccc1)C(=O)C(Cc1ccccc1)NC(=O)C(Cc1cn(C)c2ccccc12)NC(=O)CC1NC(=O)C2C3CCC(CC3)N2C1=O` (stereo unspecified), the logP was found to be 3.85.
